Laboratory results from PubChem BioAssay (NCI).
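Exposure lasted 48 hours, with cells grown in 96-well plates and compounds tested at five concentrations. GI50 is the concentration that inhibits growth by half. Definition used: TGI = concentration required for complete inhibition of growth.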

Assays:
Test in all cases: DTP human tumour cell line panel, 48 h
K-562 leukemia = test system: K-562 leukemia
HS 578T breast = test system: HS 578T breast
MCF7 breast = test system: MCF7 breast
OVCAR-3 ovarian = test system: OVCAR-3 ovarian
SR leukemia = test system: SR leukemia
DU-145 prostate = test system: DU-145 prostate
HCT-116 colon = test system: HCT-116 colon
OVCAR-5 ovarian = test system: OVCAR-5 ovarian
BT-549 breast = test system: BT-549 breast
PC-3 prostate = test system: PC-3 prostate
SNB-19 CNS = test system: SNB-19 CNS
HOP-62 NSCLC = test system: HOP-62 NSCLC
SK-MEL-28 melanoma = test system: SK-MEL-28 melanoma
RPMI-8226 leukemia = test system: RPMI-8226 leukemia
MALME-3M melanoma = test system: MALME-3M melanoma
NCI-H522 lung = test system: NCI-H522 lung
NCI-H23 lung = test system: NCI-H23 lung
UO-31 renal = test system: UO-31 renal
HOP-92 NSCLC = test system: HOP-92 NSCLC
NCI-H226 lung = test system: NCI-H226 lung
CCRF-CEM leukemia = test system: CCRF-CEM leukemia
TK-10 renal = test system: TK-10 renal
786-0 renal = test system: 786-0 renal
EKVX NSCLC = test system: EKVX NSCLC
HT29 colon = test system: HT29 colon
OVCAR-8 ovarian = test system: OVCAR-8 ovarian
SK-OV-3 ovarian = test system: SK-OV-3 ovarian
CAKI-1 renal = test system: CAKI-1 renal
HCT-15 colon = test system: HCT-15 colon
KM12 colon = test system: KM12 colon
RXF 393 renal = test system: RXF 393 renal
SF-295 CNS = test system: SF-295 CNS
T-47D breast = test system: T-47D breast
MOLT-4 leukemia = test system: MOLT-4 leukemia
NCI/ADR-RES ovarian = test system: NCI/ADR-RES ovarian
U251 CNS = test system: U251 CNS
A498 renal = test system: A498 renal
MDA-MB-435 = test system: MDA-MB-435
HL-60(TB) leukemia = test system: HL-60(TB) leukemia
COLO 205 colon = test system: COLO 205 colon
MDA-MB-231 breast = test system: MDA-MB-231 breast
UACC-257 melanoma = test system: UACC-257 melanoma
SK-MEL-2 melanoma = test system: SK-MEL-2 melanoma
NCI-H460 lung = test system: NCI-H460 lung
SF-268 CNS = test system: SF-268 CNS
ACHN renal = test system: ACHN renal
UACC-62 melanoma = test system: UACC-62 melanoma
A549 NSCLC = test system: A549 NSCLC
M14 melanoma = test system: M14 melanoma
OVCAR-4 ovarian = test system: OVCAR-4 ovarian
IGROV1 ovarian = test system: IGROV1 ovarian
SNB-75 CNS = test system: SNB-75 CNS
SF-539 CNS = test system: SF-539 CNS
SN12C renal = test system: SN12C renal
SK-MEL-5 melanoma = test system: SK-MEL-5 melanoma
SW-620 colon = test system: SW-620 colon
HCC-2998 colon = test system: HCC-2998 colon

## CN1CCN(Cc2ccc(NC(=O)c3cnc(F)c(C#Cc4cnc(N)c5ncccc45)c3)cc2C(F)(F)F)CC1
K-562 leukemia
  GI50: 0.005 µM
  TGI: 0.675 µM
HS 578T breast
  GI50: 0.183 µM
  TGI: 2.11 µM
MCF7 breast
  GI50: 0.309 µM
  TGI: 5.76 µM
OVCAR-3 ovarian
  GI50: 0.516 µM
  TGI: 9.58 µM
SR leukemia
  GI50: 0.149 µM
  TGI: 50 µM
DU-145 prostate
  GI50: 0.273 µM
  TGI: 7.95 µM
HCT-116 colon
  GI50: 0.15 µM
  TGI: 2.99 µM
OVCAR-5 ovarian
  GI50: 0.417 µM
  TGI: 9.27 µM
BT-549 breast
  GI50: 1.11 µM
  TGI: 9.83 µM
PC-3 prostate
  GI50: 0.32 µM
  TGI: 10.1 µM
SNB-19 CNS
  GI50: 1.94 µM
  TGI: 11.9 µM
HOP-62 NSCLC
  GI50: 0.387 µM
  TGI: 9.9 µM
SK-MEL-28 melanoma
  GI50: 0.126 µM
  TGI: 0.804 µM
RPMI-8226 leukemia
  GI50: 0.332 µM
  TGI: 22.7 µM
MALME-3M melanoma
  GI50: 0.0508 µM
  TGI: 0.234 µM
NCI-H522 lung
  GI50: 0.204 µM
  TGI: 9.96 µM
NCI-H23 lung
  GI50: 0.485 µM
  TGI: 9.59 µM
UO-31 renal
  GI50: 0.14 µM
  TGI: 1.16 µM
HOP-92 NSCLC
  GI50: 0.133 µM
  TGI: 1.17 µM
NCI-H226 lung
  GI50: 0.121 µM
  TGI: 1.94 µM
CCRF-CEM leukemia
  GI50: 0.188 µM
  TGI: 20.8 µM
TK-10 renal
  GI50: 0.679 µM
  TGI: 11.6 µM
786-0 renal
  GI50: 0.448 µM
  TGI: 7.86 µM
EKVX NSCLC
  GI50: 1.53 µM
  TGI: 11.3 µM
HT29 colon
  GI50: 0.143 µM
  TGI: 6.02 µM
OVCAR-8 ovarian
  GI50: 0.425 µM
  TGI: 22.2 µM
SK-OV-3 ovarian
  GI50: 0.263 µM
  TGI: 8.7 µM
CAKI-1 renal
  GI50: 0.11 µM
  TGI: 0.877 µM
HCT-15 colon
  GI50: 0.184 µM
  TGI: 7.53 µM
KM12 colon
  GI50: 0.00661 µM
  TGI: 6.05 µM
RXF 393 renal
  GI50: 0.122 µM
  TGI: 0.567 µM
SF-295 CNS
  GI50: 0.294 µM
  TGI: 9.24 µM
T-47D breast
  GI50: 0.983 µM
  TGI: 22.3 µM
MOLT-4 leukemia
  GI50: 0.182 µM
  TGI: 8.64 µM
NCI/ADR-RES ovarian
  GI50: 0.48 µM
  TGI: 12.5 µM
U251 CNS
  GI50: 0.252 µM
  TGI: 13.2 µM
A498 renal
  GI50: 0.161 µM
  TGI: 0.963 µM
MDA-MB-435
  GI50: 0.141 µM
  TGI: 6.09 µM
HL-60(TB) leukemia
  GI50: 0.195 µM
  TGI: 4.41 µM
COLO 205 colon
  GI50: 0.19 µM
  TGI: 5.33 µM
MDA-MB-231 breast
  GI50: 0.189 µM
  TGI: 1.14 µM
UACC-257 melanoma
  GI50: 0.339 µM
  TGI: 6.51 µM
SK-MEL-2 melanoma
  GI50: 0.114 µM
  TGI: 0.451 µM
NCI-H460 lung
  GI50: 0.182 µM
  TGI: 6.49 µM
SF-268 CNS
  GI50: 0.324 µM
  TGI: 6.35 µM
ACHN renal
  GI50: 0.119 µM
  TGI: 5.27 µM
UACC-62 melanoma
  GI50: 0.103 µM
  TGI: 0.586 µM
A549 NSCLC
  GI50: 0.321 µM
  TGI: 11.9 µM
M14 melanoma
  GI50: 0.0746 µM
  TGI: 0.601 µM
OVCAR-4 ovarian
  GI50: 0.195 µM
  TGI: 8.15 µM
IGROV1 ovarian
  GI50: 0.139 µM
  TGI: 7.48 µM
SNB-75 CNS
  GI50: 0.643 µM
  TGI: 6.47 µM
SF-539 CNS
  GI50: 0.199 µM
  TGI: 2.83 µM
SN12C renal
  GI50: 0.161 µM
  TGI: 5.57 µM
SK-MEL-5 melanoma
  GI50: 0.735 µM
  TGI: 5.05 µM
SW-620 colon
  GI50: 0.226 µM
  TGI: 5.82 µM
HCC-2998 colon
  GI50: 0.963 µM
  TGI: 9.21 µM
